Key:
[1] = test system: HCV genotype 1b replicon cell line; assay: HCV Genotype 1b Replicon Assay; type: cell-based, hepatitis C virus; conditions: Huh7 cell background, Renilla luciferase readout, 48 hours
Description: Assay 1: HCV Genotype 1b Replicon Assay
The HCV genotype 1b replicon cell line was obtained from Apath LLC (Brooklyn, N.Y.) (APC144; Huh7 cell background). This subgenomic replicon contains the N-terminus of the HCV core protein fused to the neomycin-resistance selectable marker. The EMCV IRES lies downstream and drives expression of humanized Renilla luciferase fused to the non-structural proteins NS3-NS5B. This cell line was used to determine compound potency using the luciferase activity readout as a measurement of compound inhibition of replicon levels.
Cells were grown at 37° C. in a 5% CO2 humidified incubator in DMEM (Invitrogen) with 10% FBS (HyClone), 1×NEAA (Invitrogen), 1× Pen-Strep (Invitrogen), and 500 μg/mL G418 (Invitrogen). On day 1 of the assay, cells were plated at 10,000 cells/well in white 96-well tissue culture plates (Costar) in 200 μL media lacking G418. Four hours later, once the cells have adhered, the media was removed and replaced with media (no G418) containing dose-responses of test compounds. Compounds were initially diluted in DMSO and then diluted another 200× in media to bring the final DMSO concentration down to 0.5%. The cells were incubated with test compounds for 48 hours. At the end of the incubation period, media and compound were removed from the plates and the luciferase activity was determined using Promega Renilla-Glo reagents.
To analyze the data, the luciferase activity was plotted vs. the compound concentration, and EC50 values were determined from a 4-parameter robust fit model with the GraphPad Prism software package (GraphPad Software, Inc., San Diego, Calif.). Results are expressed as the negative decadic logarithm of the EC50 value, pEC50.
Test compounds having a higher pEC50 value in this assay show greater inhibition of HCV genotype 1b replication.

[2] = test system: HCV genotype 1a replicon cell line; assay: HCV Genotype 1a Replicon Assay; type: cell-based, hepatitis C virus; conditions: Huh7.5 cell background, NS3-specific protease activity in lysates, 48 or 72 hours; for EC50: Hepatitis C virus, read-out: Genotype 1a (pEC50 class) (converted)
Procedure, shortened: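 Huh7.5-based subgenomic genotype 1a replicon cells, plated without G418, exposed to compound dose-responses (0.5% DMSO final) for 48 or 72 h at 37 °C. Lysate NS3/4a protease activity read with 15 μM FRET substrate, 20 min at 37 °C (Ex 340/Em 509 nm); EC50 from 4-parameter fit.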

| Structure (SMILES) | Genotype 1b (pEC50 class) [1] | Genotype 1a (pEC50 class) [2] | EC50 [2] |
| --- | --- | --- | --- |
| COC(=O)N[C@H](C(=O)N1CCC[C@H]1c1nc(-c2ccc(-c3ccc(NC(=O)N4CCN(C5CCN(C(=O)OC(C)(C)C)CC5)CC4)cc3)cc2)c[nH]1)C(C)C [Example 1-1] | D (D represents pEC50>10 (EC50<0.1 nM)) | C (C represents pEC50 between and 9 and about 10, (EC50 between 1 nM and 0.1 nM)) | – |
| COC(=O)N[C@H](C(=O)N1CCC[C@H]1c1nc(-c2ccc(-c3ccc(NC(=O)N4CCN(C5CCN(C(=O)C6CC6)CC5)CC4)cc3)cc2)c[nH]1)C(C)C [Example 1-8] | D (D represents pEC50>10 (EC50<0.1 nM)) | C (C represents pEC50 between and 9 and about 10, (EC50 between 1 nM and 0.1 nM)) | – |
| COC(=O)N[C@H](C(=O)N1CCC[C@H]1c1nc(-c2ccc(-c3ccc(NC(=O)N4CCN(C5CCN(C(=O)[C@H]6CC6(C)C)CC5)CC4)cc3OC(F)(F)F)cc2)c[nH]1)C(C)C [Example 1-12] | D (D represents pEC50>10 (EC50<0.1 nM)) | C (C represents pEC50 between and 9 and about 10, (EC50 between 1 nM and 0.1 nM)) | – |
| COC(=O)N[C@H](C(=O)N1CCC[C@H]1c1nc(-c2ccc(-c3ccc(NC(=O)N4CCN(C5CCN(C(=O)C6CC6)CC5)CC4)cc3OC(F)(F)F)cc2)c[nH]1)C(C)C [Example 1-13] | D (D represents pEC50>10 (EC50<0.1 nM)) | C (C represents pEC50 between and 9 and about 10, (EC50 between 1 nM and 0.1 nM)) | – |
| COC(=O)N[C@H](C(=O)N1CCC[C@H]1c1nc(-c2ccc(-c3ccc(NC(=O)N4CCN(C5CCN(C(=O)OC(C)(C)C)CC5)CC4)cc3OC(F)(F)F)cc2)c[nH]1)C(C)C [Example 1-14] | D (D represents pEC50>10 (EC50<0.1 nM)) | C (C represents pEC50 between and 9 and about 10, (EC50 between 1 nM and 0.1 nM)) | – |
| COC(=O)N[C@H](C(=O)N1C[C@@H](OC)C[C@H]1c1nc(-c2ccc(-c3ccc(NC(=O)N4CCN(C5CCN(C(=O)C6CCCC6(C)C)CC5)CC4)cc3OC(F)(F)F)cc2)c[nH]1)C(C)C (some centres unmarked) [Example 5-4] | – | – | 0.1 to 1 nM |
| COC(=O)N[C@H](C(=O)N1C[C@@H](OC)C[C@H]1c1nc(-c2ccc(-c3ccc(NC(=O)N4CCN(C5CCN(C(=O)C(C)(C)CO)CC5)CC4)cc3OC(F)(F)F)cc2)c[nH]1)C(C)C [Example 5-5] | – | – | 0.1 to 1 nM |
| COC(=O)N[C@H](C(=O)N1C[C@@H](C)C[C@H]1c1nc(-c2ccc(-c3cc(Cl)c(NC(=O)N4CCN(C5CCN(C(=O)C6CC6(F)F)CC5)CC4)cc3OC(F)(F)F)cc2)c[nH]1)C(C)C (some centres unmarked) [Example 5] | – | – | 0.1 to 1 nM |
| COC(=O)N[C@H](C(=O)N1C[C@@H](C)C[C@H]1c1nc2c(ccc3cc(-c4ccc(NC(=O)N5CCN(C6CCN(C(=O)OC(C)(C)C)CC6)CC5)cc4OC(F)(F)F)ccc32)[nH]1)C(C)C [Example 6-2] | – | – | < 0.1 nM |
| COC(=O)N[C@H](C(=O)N1C[C@@H](C)C[C@H]1c1nc2c(ccc3cc(-c4ccc(NC(=O)N5CCN(C6CCN(C(=O)C7CCC7(C)C)CC6)CC5)cc4OC(F)(F)F)ccc32)[nH]1)C(C)C (some centres unmarked) [Example 6-3] | – | – | < 0.1 nM |
| COC(=O)N[C@H](C(=O)N1C[C@@H](C)C[C@H]1c1nc(-c2ccc(-c3cc(Cl)c(NC(=O)N4CCN(C5CCN(C(=O)C6CCC6)CC5)CC4)cc3OC(F)(F)F)cc2)c[nH]1)C(C)C [Example 6] | – | – | 0.1 to 1 nM |
| COC(=O)N[C@H](C(=O)N1C[C@@H](C)C[C@H]1c1nc2c(ccc3cc(-c4ccc(NC(=O)N5CCN(C6CCN(C(=O)OC(C)(C)C)CC6)CC5)cc4OC(F)(F)F)ccc32)[nH]1)C1CCOCC1 [Example 7-1] | – | – | < 0.1 nM |
| COC(=O)N[C@H](C(=O)N1C[C@@H](C)C[C@H]1c1nc2c(ccc3cc(-c4ccc(NC(=O)N5CCN(C6CCN(C(=O)C(C)(C)C)CC6)CC5)cc4OC(F)(F)F)ccc32)[nH]1)C1CCOCC1 [Example 7-2] | – | – | < 0.1 nM |
| COC(=O)N[C@H](C(=O)N1C[C@@H](C)C[C@H]1c1nc2c(ccc3cc(-c4ccc(NC(=O)N5CCN(C6CCN(C(=O)C(C)(C)CO)CC6)CC5)cc4OC(F)(F)F)ccc32)[nH]1)C1CCOCC1 [Example 7-3] | – | – | 0.1 to 1 nM |
| COC(=O)N[C@H](C(=O)N1C[C@@H](C)C[C@H]1c1nc2c(ccc3cc(-c4ccc(NC(=O)N5CCN(C6CCN(C(=O)C7CC7)CC6)CC5)cc4OC(F)(F)F)ccc32)[nH]1)C1CCOCC1 [Example 7-4] | – | – | < 0.1 nM |
| COC(=O)N[C@H](C(=O)N1C[C@@H](C)C[C@H]1c1nc2c(ccc3cc(-c4ccc(NC(=O)N5CCN(C6CCN(C(=O)[C@H]7CC7(C)C)CC6)CC5)cc4OC(F)(F)F)ccc32)[nH]1)C1CCOCC1 [Example 7-5] | – | D (D represents pEC50>10 (EC50<0.1 nM)) | – |
| COC(=O)N[C@H](C(=O)N1C[C@@H](C)C[C@H]1c1nc(-c2ccc(-c3ccc(NC(=O)N4CCN(C5CCN(C(=O)C(C)(C)C)CC5)CC4)cc3OC(F)(F)F)cc2)c(F)[nH]1)C(C)C [Example 8, [(S)-1-((2S,4S)-2-{4-[4′-({4-[1-(2,2-Dimethyl-propionyl)-piperidin-4-yl]-piperazine-1-carbonyl}-amino)-2′-trifluoromethoxy-biphenyl-4-yl]-5-fluoro-1H-imidazol-2-yl}-4-methyl-pyrrolidine-1-carbonyl)-2-methyl-propyl]-carbamic acid methyl ester] | – | – | < 0.1 nM |
| COC(=O)N[C@H](C(=O)N1CCC[C@H]1c1nc(-c2ccc(-c3ccc(NC(=O)N4CC5CCC(C4)N5C4CCN(C(=O)C5CC5)CC4)cc3OC(F)(F)F)cc2)c[nH]1)C(C)C [Example 8-1] | – | – | 1 to 10 nM |
| COC(=O)N[C@H](C(=O)N1CCC[C@H]1c1nc(-c2ccc(-c3ccc(NC(=O)N4CC5CCC(C4)N5C4CCN(C(=O)OC(C)(C)C)CC4)cc3OC(F)(F)F)cc2)c[nH]1)C(C)C [Example 8-2] | – | – | 0.1 to 1 nM |
| COC(=O)N[C@H](C(=O)N1[C@@H](C)CC[C@H]1c1nc(-c2ccc(-c3ccc(NC(=O)N4CCN(C5CCN(C(=O)C(C)(C)C)CC5)CC4)cc3OC(F)(F)F)cc2)c[nH]1)C(C)C [Example 8-3] | – | – | 0.1 to 1 nM |
| COC(=O)N[C@H](C(=O)N1[C@@H](C)CC[C@H]1c1nc(-c2ccc(-c3ccc(NC(=O)N4CCN(C5CCN(C(=O)C6CC6)CC5)CC4)cc3OC(F)(F)F)cc2)c[nH]1)C(C)C [Example 8-4] | – | – | 0.1 to 1 nM |
| COC(=O)N[C@H](C(=O)N1[C@@H](C)CC[C@H]1c1nc(-c2ccc(-c3ccc(NC(=O)N4CCN(C5CCN(C(=O)[C@H]6CC6(C)C)CC5)CC4)cc3OC(F)(F)F)cc2)c[nH]1)C(C)C [Example 8-5] | – | – | 0.1 to 1 nM |
| COC(=O)N[C@H](C(=O)N1C[C@@H](C)C[C@H]1c1nc(-c2ccc(-c3ccc(NC(=O)N4CCN(C5CCN(C(=O)C6CC6)CC5)CC4)cc3OC(F)(F)F)cc2)c(F)[nH]1)C(C)C [Example 9] | – | – | < 0.1 nM |
| COC(=O)N[C@H](C(=O)N1C[C@@H](C)C[C@H]1c1nc(-c2ccc(-c3ccc(NC(=O)N4CCN(C5CCN(C(=O)[C@H]6CC6(C)C)CC5)CC4)cc3OC(F)(F)F)cc2)c(F)[nH]1)C(C)C [Example 10] | – | D (D represents pEC50>10 (EC50<0.1 nM)) | – |
| COC(=O)N[C@H](C(=O)N1C[C@@H](C)C[C@H]1c1nc(-c2ccc(-c3cc(Cl)c(NC(=O)N4CCC(N5CCN(C(=O)C(C)(C)C)C[C@@H]5C)CC4)cc3OC(F)(F)F)cc2)c[nH]1)C(C)C [Example 12, [(S)-1-((2S,4S)-2-{4-[5′-Chloro-4′-({4-[(S)-4-(2,2-dimethyl-propionyl)-2-methyl-piperazin-1-yl]-piperidine-1-carbonyl}-amino)-2′-trifluoromethoxy-biphenyl-4-yl]-1H-imidazol-2-yl}-4-methyl-pyrrolidine-1-carbonyl)-2-methyl-propyl]-carbamic acid methyl ester] | – | – | 0.1 to 1 nM |
| COC(=O)N[C@H](C(=O)N1C[C@@H](OC)C[C@H]1c1nc(-c2ccc(-c3ccc(NC(=O)N4CCC(N5CCN(C(=O)C6CCC6(C)C)CC5)CC4)cc3OC(F)(F)F)cc2)c[nH]1)C(C)C (stereo partly drawn) [Example 14, [(S)-1-((2S,4S)-2-{4-[4′-({4-[4-(2,2-Dimethyl-cyclobutanecarbonyl)-piperazin-1-yl]-piperidine-1-carbonyl}-amino)-2′-trifluoromethoxy-biphenyl-4-yl]-1H-imidazol-2-yl}-4-methoxy-pyrrolidine-1-carbonyl)-2-methyl-propyl]-carbamic acid methyl ester] | – | – | 0.1 to 1 nM |
| COC(=O)N[C@H](C(=O)N1C[C@@H](C)C[C@H]1c1nc2c(ccc3cc(-c4ccc(NC(=O)N5CCN(C6CCN(C(=O)C(C)(C)C)CC6)CC5)cc4OC(F)(F)F)ccc32)[nH]1)C(C)C [Example 15, [(S)-1-((2S,4S)-2-{7-[4-({4-[1-(2,2-Dimethyl-propionyl)-piperidin-4-yl]-piperazine-1-carbonyl}-amino)-2-trifluoromethoxy-phenyl]-3H-naphtho[1,2-d]imidazol-2-yl}-4-methyl-pyrrolidine-1-carbonyl)-2-methyl-propyl]-carbamic acid methyl ester] | – | – | < 0.1 nM |

From patent US9206159B2, “Piperazine-piperidine compounds as hepatitis C virus inhibitors” (Theravance Biopharma R&D IP, LLC, priority 2012, dated 2015)
